In patent publication US20260200890A1, “ADAR1 INHIBITORS AND METHODS OF USING THE SAME” (AVAMMUNE THERAPEUTICS INC., priority 2022, published 2026):

Biological target: T1, ADAR1 (Homo sapiens, UniProt P55265)
T1 construct: endogenous in cells; host or cells: p110 KO A549 dual cells
T1 sequence (P55265 1-1226): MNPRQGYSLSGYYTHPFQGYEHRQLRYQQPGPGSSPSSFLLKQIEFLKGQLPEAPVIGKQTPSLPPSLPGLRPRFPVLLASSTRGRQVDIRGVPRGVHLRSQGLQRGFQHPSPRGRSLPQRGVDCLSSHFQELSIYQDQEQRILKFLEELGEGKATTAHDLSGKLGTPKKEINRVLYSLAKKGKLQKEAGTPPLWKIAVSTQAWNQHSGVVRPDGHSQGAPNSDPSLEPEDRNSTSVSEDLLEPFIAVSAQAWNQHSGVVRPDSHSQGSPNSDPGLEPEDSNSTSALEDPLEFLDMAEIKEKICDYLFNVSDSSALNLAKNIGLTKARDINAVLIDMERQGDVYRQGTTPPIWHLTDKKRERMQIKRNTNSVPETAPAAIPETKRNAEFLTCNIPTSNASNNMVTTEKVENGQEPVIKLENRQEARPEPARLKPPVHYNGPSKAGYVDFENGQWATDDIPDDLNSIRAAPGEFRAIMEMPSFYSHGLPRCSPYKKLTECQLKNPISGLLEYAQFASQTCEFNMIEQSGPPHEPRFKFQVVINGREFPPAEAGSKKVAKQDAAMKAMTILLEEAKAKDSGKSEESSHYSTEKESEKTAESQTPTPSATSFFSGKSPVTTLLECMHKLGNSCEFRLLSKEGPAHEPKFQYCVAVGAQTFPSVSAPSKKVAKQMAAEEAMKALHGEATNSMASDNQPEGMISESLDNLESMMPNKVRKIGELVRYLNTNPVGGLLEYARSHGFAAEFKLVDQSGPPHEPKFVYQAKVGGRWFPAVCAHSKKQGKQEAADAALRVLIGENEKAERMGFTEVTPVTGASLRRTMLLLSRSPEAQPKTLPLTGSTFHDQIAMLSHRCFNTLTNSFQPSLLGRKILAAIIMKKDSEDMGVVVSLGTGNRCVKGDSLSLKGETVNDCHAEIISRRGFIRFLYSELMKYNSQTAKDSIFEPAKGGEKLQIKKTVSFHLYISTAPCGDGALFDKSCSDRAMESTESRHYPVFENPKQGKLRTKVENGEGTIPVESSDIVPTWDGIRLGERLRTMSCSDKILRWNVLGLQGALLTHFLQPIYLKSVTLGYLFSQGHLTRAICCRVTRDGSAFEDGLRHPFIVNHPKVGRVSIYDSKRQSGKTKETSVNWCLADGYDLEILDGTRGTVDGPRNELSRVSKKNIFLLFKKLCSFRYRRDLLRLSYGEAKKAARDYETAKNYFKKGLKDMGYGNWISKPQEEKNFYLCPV
Test: ADAR1 Inhibition Assay (IFN fold-induction, Quanti-Luc luminescence, p110 KO A549 dual cells)
Format: cell-based
Details: IFN fold-induction vs DMSO, 24 and 48 h
Protocol: An ADAR1 Inhibition Assay was used to determine the biological activity (EC50) of compounds disclosed herein. 100 μL of p110 KO A549 dual cell suspension in supplemented DMEM (20,000 cells per well) was added into a flat bottom 96 well plate. Next day, post media change, 180 μL of supplemented DMEM was added. 20 μL of test compound or positive control was added to the respective wells (Final concentration of DMSO is 1%). The plate was incubated for 24 and 48 hours at 37° C. in a 5% CO2 incubator. After 24 and 48 h, 20 μL of cell suspension was taken in black well plates and 50 μL of Quanti-Luc was added to each well and luminescence was measured using a microplate reader (Spectra Max). IFN fold-induction was plotted considering DMSO as control using the relative luminescence unit (RLU) values. (Fold induction: Sample RLU/Average DMSO RLU).

Structure (SMILES) | EC50 [µM]
CS(=O)(=O)Nc1cccc(C(=O)OCC(=O)Nc2sccc2C#N)c1 [Compound 90] | > 100
CCOC(=O)c1cc(C2CC2)sc1NC(=O)COC(=O)c1cccc(NS(C)(=O)=O)c1 [Compound 230] | > 100
CCOC(=O)c1cc(-c2ccccc2)sc1NC(=O)CN(C)C(=O)Cc1cccc(NS(C)(=O)=O)c1 [Compound 336] | > 100
CCOC(=O)c1cc(-c2ccc3c(c2)OCO3)sc1NC(=O)COC(=O)c1cccc(NS(C)(=O)=O)c1 [Compound 316] | > 100
CCOC(=O)c1cc(-c2ccccc2)sc1NC(=O)[C@H](CC)OC(=O)c1cccc(NS(C)(=O)=O)c1 [Compound 80] | > 100
CCOC(=O)c1cc(-c2ccccc2)ncc1NC(=O)COC(=O)c1cccc(P(=O)(OCC)OCC)c1 [Compound 381] | > 100
CCOC(=O)c1cc(-c2cncnc2)sc1NC(=O)COC(=O)c1cccc(NS(N)(=O)=O)c1 [Compound 115] | > 100
CCOC(=O)c1cc(-c2ccccc2)sc1NC(=O)Cc1nc(-c2cccc(NS(C)(=O)=O)c2)no1 [Compound 216] | > 100
CCOC(=O)c1cc(-c2ccc(N3CCNCC3)cc2)sc1NC(=O)COC(=O)c1cccc(NS(C)(=O)=O)c1 [Compound 198] | > 100
CCOC(=O)c1cc(-c2ccccc2)sc1NC(=O)C1CN(C(=O)c2cccc(NS(C)(=O)=O)c2)CCO1 (stereo not shown) [Compound 224] | > 100
CCOC(=O)c1cc(-c2ccc(OC)cc2)sc1NC(=O)COC(=O)c1cccc(NS(C)(=O)=O)c1 [Compound 205] | > 100
CCOC(=O)c1cc(-c2ccccc2)sc1NC(=O)C1CCN(C(=O)c2cccc(NS(C)(=O)=O)c2)CC1 [Compound 168] | > 100
CCOC(=O)c1c(NC(=O)COC(=O)c2cccc(NS(C)(=O)=O)c2)sc(-c2ccccc2)c1C(=O)OCC [Compound 251] | > 100
CCOC(=O)c1cc(-c2ccccc2)sc1NC(=O)C1CCN1C(=O)c1cccc(NS(C)(=O)=O)c1 (stereo not shown) [Compound 146] | > 100
CCOC(=O)c1cc(-c2ccc(N(C)C)cc2)sc1NC(=O)COC(=O)c1cccc(NS(C)(=O)=O)c1 [Compound 213] | > 100
CCOC(=O)c1cc(-c2ccccc2)sc1NC(=O)CN(C(=O)c1cccc(NS(C)(=O)=O)c1)C1CC1 [Compound 155] | > 100
CCOC(=O)c1nc(-c2ccccc2)oc1NC(=O)COC(=O)c1cccc(P(=O)(OCC)OCC)c1 [Compound 407] | 50 to 100
CCOC(=O)c1cc(-c2ccccc2)sc1NC(=O)COC(=O)C1CCCN(S(C)(=O)=O)C1 (stereo not shown) [Compound 142] | > 100
CCOC(=O)c1cc(-c2ccc(N3CCOCC3)cc2)sc1NC(=O)COC(=O)c1cccc(NS(C)(=O)=O)c1 [Compound 135] | > 100
CCOC(=O)c1cc(-c2ccccc2)sc1NC(=O)C1CCN(C(=O)c2cccc(NS(=O)(=O)N3CCOCC3)c2)C1 (stereo not shown) [Compound 158] | > 100
CCOC(=O)c1cc(-c2ccccc2)sc1NC(=O)COC(=O)c1cccc(OP(=O)(N[C@H](C)C(=O)OC(C)C)Oc2ccccc2)c1 (stereo partly shown) [Compound 411] | > 100
CCOC(=O)c1cc(-c2ccc(OC(F)(F)F)cc2)sc1NC(=O)COC(=O)c1cccc(NS(C)(=O)=O)c1 [Compound 100] | > 100
CCOC(=O)c1c(NC(=O)COC(=O)c2cccc(NS(C)(=O)=O)c2)sc2ccccc12 [Compound 243] | > 100
NS(=O)(=O)c1cccc(C(=O)NCC(=O)Nc2ccc3cc(Br)ccc3c2)c1 [Compound 43] | > 100
CCOC(=O)c1cc(-c2ccccc2)sc1NC(=O)C1CCCN(C(=O)c2cccc(NS(C)(=O)=O)c2)C1 (stereo not shown) [Compound 152] | > 100
CCOC(=O)c1cc(-c2ccccc2)sc1NC(=O)C1CC2(CC2)CN1C(=O)c1cccc(NS(C)(=O)=O)c1 (stereo not shown) [Compound 148] | > 100

More lines, now with the values ahead:

EC50 [µM] | Structure (SMILES)
> 100 | CS(=O)(=O)Nc1cccc(C(=O)OCCNC(=O)c2cc(-c3ccccc3)sc2N)c1 [Compound 289]
> 100 | CS(=O)(=O)Nc1cccc(C(=O)OCC(=O)Nc2sc(-c3ccccc3)cc2C(=O)N2CCOCC2)c1 [Compound 123]
> 100 | CCOC(=O)c1cc(-c2ccccc2)sc1NC(=O)COC(=O)c1cccc(S(=O)(=O)N2CCOCC2)c1 [Compound 58]
> 100 | CCOC(=O)c1cc(-c2cccc(C)c2)sc1NC(=O)COC(=O)c1cccc(NS(C)(=O)=O)c1 [Compound 192]
> 100 | CCOC(=O)c1cc(-c2ccccc2)sc1NC(=O)CNC(=O)c1cc(S(N)(=O)=O)ccc1C [Compound 53]
> 100 | COC(=O)c1cc(-c2ccncc2)sc1NC(=O)CNC(=O)c1cccc(S(N)(=O)=O)c1 [Compound 38]
> 100 | CCOC(=O)c1cc(-c2ccccc2)sc1NC(=O)COC(=O)c1cccc(S(=O)(=O)N2CCC(N)C2)c1 (stereo not shown) [Compound 59]
> 100 | CCOC(=O)c1cc(-c2ccccc2)sc1NC(=O)[C@H](CC)OC(=O)c1cccc(S(N)(=O)=O)c1 [Compound 79]
> 100 | CCOC(=O)c1cnc(NC(=O)COC(=O)c2cccc(NS(C)(=O)=O)c2)nc1-c1ccccc1 [Compound 298]
> 100 | CCOC(=O)c1sc(-c2ccccc2)cc1NC(=O)COC(=O)c1cccc(S(N)(=O)=O)c1 [Compound 423]
> 100 | CCNC(=O)c1cc(-c2ccccc2)sc1NC(=O)COC(=O)c1cccc(NS(C)(=O)=O)c1 [Compound 117]
> 100 | CS(=O)(=O)Nc1cccc(C(=O)OCC(=O)Nc2nnc(-c3ccccc3)o2)c1 [Compound 185]
> 100 | CCOC(=O)c1cc(-c2ccccc2)sc1NC(=O)CNC(=O)c1cccc(S(=O)(=O)NC(C)C)c1 [Compound 41]
50 to 100 | COC(=O)c1sc(-c2ccccc2)cc1NC(=O)COC(=O)c1cccc(S(N)(=O)=O)c1 [Compound 318]
> 100 | CON(C)C(=O)c1cc(-c2ccccc2)sc1NC(=O)COC(=O)c1cccc(NS(C)(=O)=O)c1 [Compound 217]
> 100 | CCOC(=O)c1cc(NC(=O)COC(=O)c2cccc(NS(C)(=O)=O)c2)sc1-c1ccccc1 [Compound 247]
> 100 | CCOC(=O)c1cc(-c2ccccc2)sc1NC(=O)c1cccc(C#N)c1 [Compound 88]
> 100 | CCOC(=O)c1cc(-c2ccccc2)sc1NC(=O)COC(=O)c1cccc(NS(=O)(=O)C(F)(F)F)c1 [Compound 257]
> 100 | CCOC(=O)c1cc(-c2ccccc2)sc1NC(=O)CNc1cccc(S(=O)(=O)N(C)C)c1 [Compound 15]
> 100 | CCOC(=O)c1cc(-c2ccccc2)sc1NC(=O)CN(c1cccc(CO)c1)S(C)(=O)=O [Compound 105]
> 100 | NS(=O)(=O)c1cccc(C(=O)OCC(=O)Nc2ccc(-c3ccccc3)s2)c1 [Compound 78]
> 100 | CCOC(=O)c1ccnc(-c2ccccc2)c1NC(=O)COC(=O)c1cccc(NS(C)(=O)=O)c1 [Compound 375]
> 100 | CCOC(=O)c1cc(-c2ccccc2)sc1NC(=O)COC(=O)c1cccc(N)c1 [Compound 187]
50 to 100 | CCOC(=O)c1cc(-c2ccccc2)sc1NC(=O)CCC(=O)c1cccc(NS(C)(=O)=O)c1 [Compound 303]
> 100 | CCOC(=O)c1c(-c2ccccc2)csc1NC(=O)COC(=O)c1cccc(NS(C)(=O)=O)c1 [Compound 95]
> 100 | CCOC(=O)c1cc(-c2ccccc2)sc1NC(=O)COC(=O)c1cccc(N(C)C)c1 [Compound 199]
> 100 | COC(=O)c1sc(-c2ccccc2)cc1NC(=O)CNC(=O)c1cccc(NS(C)(=O)=O)c1 [Compound 332]
> 100 | CCOC(=O)c1cc(Cc2ccccc2)sc1NC(=O)COC(=O)c1cccc(NS(C)(=O)=O)c1 [Compound 196]
> 100 | CCOC(=O)c1cc(-c2ccccc2)sc1NC(=O)CNC(=O)c1cccc(CNS(C)(=O)=O)c1 [Compound 342]
